Laboratory results reported in patent US20240228469A1, “PCSK9 INHIBITORS AND METHODS OF USE THEREOF” (AstraZeneca AB, priority 2022, published 2024).

What was measured:
[1] = target: T1, PCSK9 (Homo sapiens, UniProt Q8NBP7, G670E/V474I); test: biochemical
[2] = target: T2, PCSK9 (Homo sapiens, UniProt Q8NBP7); test: Assay 2 Biophysical human PCSK9 assay (SPR, Biacore); format: binding; set-up: biotinylated human PCSK9 (31-692)-Avi-His6; His6 (C); details: single-cycle kinetics, 30° C., geometric mean, read-out: Assay 2 (PCSK9 BIAcore DBA Cr) GMean Kd
Experimental: The SPR binding experiments were performed on a Biacore S200 optical biosensor unit at 30° C. A Series S Sensor Chip SA that is designed to bind biotinylated molecules for interaction analysis in Biacore systems was equilibrated at room temperature prior to use. The running buffer for protein tethering and subsequent ligand binding experiments was 10 mM HEPES pH 7.4, 150 mM NaCl, 0.05% (v/v) Tween 20 pH 7.4.
For the surface tethering of PCSK9, biotinylated human PCSK9 (31-692)-Avi-His6 at a concentration of 0.5 mg/mL was used. Prior to the surface tethering, the surface was exposed to a solution of 50 mM NaOH, 500 mM NaCl via 3 consecutive injections of this solution with a contact time of 60 s and a flowrate of 10 μL min^−1 to remove non-conjugated streptavidin. The PCSK9 protein was diluted to a concentration of 20 μg/mL using running buffer and injected with a contact time of 180-300 s and a flowrate of 10 μL min^−1 over a single flow channel (typically flow channel 2 or flow channel 4) with the aim to achieve protein capture levels of >5000 response units (RU). Remaining biotin binding sites were blocked via 2 consecutive injections of a 10 μM D-biotin solution in running buffer with a contact time of 60 s and a flowrate of 10 μL min^−1 over all flow-channels. Flow-channels 1 and 3 typically served as a reference surface throughout the subsequent binding experiments.
The binding experiments were all performed at a flow rate of 30 PL min^−1 and by employing the method of single-cycle kinetics. This approach involves the sequential injection of a compound concentration series without regeneration steps. A contact time between 90-150 s was selected, which was followed by a 40 min dissociation phase to allow for a proper estimation of the dissociation rate constant. Test compounds were delivered in DMSO at a concentration of 10 mM and a digital dispenser HP D300 was used to set up the compound concentration series using 6 concentrations. The tested concentrations have been 30, 100, 300, 1000, 3000 and 10000 nM. Prior to injecting any compound, the surfaces were equilibrated by injecting running buffer over them in three separate pulses. The data collection rate was set to 10 Hz.
The raw sensorgrams of the compound injections were first subjected to reference subtraction (subtracting the signal from flow channel 1 and/or 3 from the signal from channels 2 and/or 4 respectively) and then blank subtraction (subtracting the signal from injecting DMSO controls from the reference subtracted data). The resulting double-referenced sensorgrams were then fitted using a 1:1 binding interaction model using the manufactures software package to extract kinetic- and affinity data. Active compounds have been defined by creating a detectable binding signal at the highest compound concentration ([…]) of 3 RUs. Kinetic- and affinity data on active compounds are only provided for those compounds where the binding signal at the highest compound concentration ([…]) is 50% of the theoretical maximum binding signal for a 1:1 binding interaction (Rmax, typically between 15-20 RUs) in order to enable a proper fitting of the data.
Target sequence in this assay (Q8NBP7 31-692): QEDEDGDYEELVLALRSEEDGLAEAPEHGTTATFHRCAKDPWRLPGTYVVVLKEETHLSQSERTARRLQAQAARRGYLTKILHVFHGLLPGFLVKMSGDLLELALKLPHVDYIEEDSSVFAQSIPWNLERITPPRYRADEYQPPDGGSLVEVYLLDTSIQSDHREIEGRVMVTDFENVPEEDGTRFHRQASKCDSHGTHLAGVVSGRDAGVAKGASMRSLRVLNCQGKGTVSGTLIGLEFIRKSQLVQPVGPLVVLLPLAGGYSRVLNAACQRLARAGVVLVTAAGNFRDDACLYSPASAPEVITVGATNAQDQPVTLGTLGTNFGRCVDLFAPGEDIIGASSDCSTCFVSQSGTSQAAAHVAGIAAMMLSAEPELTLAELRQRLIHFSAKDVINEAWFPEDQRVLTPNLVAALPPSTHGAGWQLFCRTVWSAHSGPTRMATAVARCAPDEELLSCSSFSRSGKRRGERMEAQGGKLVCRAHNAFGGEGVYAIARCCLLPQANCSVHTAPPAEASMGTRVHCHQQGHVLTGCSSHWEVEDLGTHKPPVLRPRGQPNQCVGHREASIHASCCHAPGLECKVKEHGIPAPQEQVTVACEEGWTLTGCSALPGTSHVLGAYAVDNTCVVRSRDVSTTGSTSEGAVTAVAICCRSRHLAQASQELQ

[3] = target: GSK3β (Glycogen synthase kinase-3 beta) (Homo sapiens, UniProt P49841); test: Assay 6 GSK3β assay (ThermoFisher Z-Lyte FRET); format: biochemical; details: ATP Conc: 10 μM, geometric mean; read-out: Assay 6 (GSK3β FRET-Z-Lyte Cr) GMean IC50
In short: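 Z-Lyte FRET: 0.22-0.92 ng kinase with 2 μM Ser/Thr 09 peptide in HEPES pH 7.5, MgCl2, EGTA, 60 min at room temperature, then 60 min development. Compounds in 1% DMSO, 10-point 3-fold series from 10 μM; sigmoidal dose-response fit.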

[4] = target: T3, potassium ion channel hERG (Homo sapiens, UniProt Q12809); test: Assay 5 hERG assay (patch clamp, CHO cells over-expressing hERG); format: cell-based; details: SyncroPatch 384PE, room temperature, geometric mean, read-out: Assay 5 (hERG Hu CHO if EPh CR-Syncro) GMean IC50
T3 construct: expressed in transfected cells; host or cells: Chinese hamster ovary K1 (CHO)
In short: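 hERG currents recorded by automated patch clamp at room temperature in CHO-K1 cells, 6-point cumulative concentrations. SyncroPatch runs used KF-based internal (pH 7.2) and NMDG-containing external solution (pH 7.4), 0.33% DMSO; QPatchII runs used 2% or 0.4% DMSO. Only wells meeting seal-resistance and current-size criteria kept.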

[5] = target: T2, PCSK9; set-up: host or cells: patients; details: clinical trials, patients; alirocumab compared to placebo; cited from earlier work
Target sequence in this assay (Q8NBP7 153-692): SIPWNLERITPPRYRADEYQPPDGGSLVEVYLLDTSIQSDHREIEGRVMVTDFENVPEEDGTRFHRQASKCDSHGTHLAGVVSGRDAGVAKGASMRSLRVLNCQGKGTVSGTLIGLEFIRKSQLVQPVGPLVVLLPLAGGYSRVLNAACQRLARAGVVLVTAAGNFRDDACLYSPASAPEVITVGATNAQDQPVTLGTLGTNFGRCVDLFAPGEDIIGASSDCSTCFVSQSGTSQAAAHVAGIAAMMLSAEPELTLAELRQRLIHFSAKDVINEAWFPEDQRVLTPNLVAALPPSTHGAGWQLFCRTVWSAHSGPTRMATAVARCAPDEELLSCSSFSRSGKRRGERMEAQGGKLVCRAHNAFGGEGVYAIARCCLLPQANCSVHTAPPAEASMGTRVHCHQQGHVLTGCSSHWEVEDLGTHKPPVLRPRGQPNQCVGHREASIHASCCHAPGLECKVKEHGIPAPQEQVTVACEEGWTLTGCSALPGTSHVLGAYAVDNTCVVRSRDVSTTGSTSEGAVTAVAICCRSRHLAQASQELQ

[6] = target: T1, PCSK9; test: Assay 3 PCSK9 LDL-C uptake assay in HepG2 cells; format: cell-based; set-up: TEV site (C); His6 (C); host or cells: added to HepG2 (ATCC #HB-8065); details: 125 nM PCSK9, pHrodo Red-LDL, read-out: Assay 3 LDL uptake potency
Excerpt: This assay measures for PCSK9 antagonist activity based on a test compound's capacity to restore LDL-C-uptake in HepG2 cells. The assay is based on exogenous PCSK9 and LDL-C complexed with a pH-sensitive dye. Outside the cells, at neutral pH, the pHrodo Red-LDL is dimly fluorescent but upon LDLR mediated endocytosis it fluoresces brightly. PCSK9 traffics the LDLR to intracellular degradation and reduces uptake of LDL-C. Inhibition of PCSK9 reduces LDLR degradation and the increased LDL-C uptake is quantified by fluorescence microscopy.
• Cell medium: MEM supplemented with 10% FBS, 1×NEAA and Sodium Pyruvate • Assay medium: OptiMem supplemented with penicillin/streptomycin • Cells: HepG2 (ATCC #HB-8065)
• 1. Cryopreserved HepG2 cells were thawed in assay medium and centrifuged for 5 min at 250 g. Supernatant was discarded and the cell pellet resuspended in cell medium and counted with a Nucleocounter. Cells were again centrifuged 5 min at 250 g and the pellet was resuspended to 500000 cells/mL in assay medium. • 2. 20 μL of above cell mix was dispensed into black μclear TC treated 384 well plates with Multidrop Combi and left at room temperature for 20 minutes. • 3. Plates were incubated at 37° C., 5% CO2 for 24 h
• 1. Test compounds were prepared in concentration response in DMSO with a half-log dilution factor in DMSO in Echo 384 LDV plates starting at 10 mM. • 2. 30 nL of above test compounds were dispensed with Echo 655 to cells for a top concentration of 10 μM • 3. 10 μL PCSK9 in assay medium was dispensed to cells with Multidrop Combi for 125 nM final concentration in the wells. • 4. Plates were incubated at 37° C., 5% CO2 for 24 h
• 1. 10 μL pHrodo Red-LDL in assay medium was dispensed to cells with Multidrop Combi for […] • 2. Plates were incubated at 37° C., 5% CO2 and imaged with the Incucyte S3 after 4 h and 24 h
Image data was processed using Incucyte 2021, a software to identify cells and red fluorescent intensity. Screener was used to further process data. Data was normalized as % effect of the signal between median values of the on-plate controls of DMSO and 100 nM Evolocumab according to the formula % effect=−100*(x−DMSO)/(Evolocumab−DMSO) where x equals the measured signal. Concentration response data of the normalized values were fitted using a four-parameter logistic fit.

T1 sequence (Q8NBP7 with tags, fused parts or gaps V474I/G670E): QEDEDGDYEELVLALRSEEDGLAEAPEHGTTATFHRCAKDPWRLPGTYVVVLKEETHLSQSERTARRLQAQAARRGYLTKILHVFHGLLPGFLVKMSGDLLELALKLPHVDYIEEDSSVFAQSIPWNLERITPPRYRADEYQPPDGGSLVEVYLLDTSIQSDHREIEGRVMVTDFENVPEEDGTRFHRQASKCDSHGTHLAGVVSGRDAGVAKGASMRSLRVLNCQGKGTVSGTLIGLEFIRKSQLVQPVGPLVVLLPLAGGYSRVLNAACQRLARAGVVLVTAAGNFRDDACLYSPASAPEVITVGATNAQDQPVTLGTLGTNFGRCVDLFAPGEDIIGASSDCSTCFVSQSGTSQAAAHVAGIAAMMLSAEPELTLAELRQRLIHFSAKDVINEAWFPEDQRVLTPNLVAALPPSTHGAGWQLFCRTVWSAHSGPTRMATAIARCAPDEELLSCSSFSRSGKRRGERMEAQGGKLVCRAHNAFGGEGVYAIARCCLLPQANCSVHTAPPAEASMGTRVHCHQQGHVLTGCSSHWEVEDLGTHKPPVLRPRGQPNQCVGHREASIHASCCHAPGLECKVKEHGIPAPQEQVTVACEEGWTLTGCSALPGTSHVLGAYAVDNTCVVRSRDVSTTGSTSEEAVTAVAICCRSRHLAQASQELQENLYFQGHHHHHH
T3 sequence (Q12809 whole entry): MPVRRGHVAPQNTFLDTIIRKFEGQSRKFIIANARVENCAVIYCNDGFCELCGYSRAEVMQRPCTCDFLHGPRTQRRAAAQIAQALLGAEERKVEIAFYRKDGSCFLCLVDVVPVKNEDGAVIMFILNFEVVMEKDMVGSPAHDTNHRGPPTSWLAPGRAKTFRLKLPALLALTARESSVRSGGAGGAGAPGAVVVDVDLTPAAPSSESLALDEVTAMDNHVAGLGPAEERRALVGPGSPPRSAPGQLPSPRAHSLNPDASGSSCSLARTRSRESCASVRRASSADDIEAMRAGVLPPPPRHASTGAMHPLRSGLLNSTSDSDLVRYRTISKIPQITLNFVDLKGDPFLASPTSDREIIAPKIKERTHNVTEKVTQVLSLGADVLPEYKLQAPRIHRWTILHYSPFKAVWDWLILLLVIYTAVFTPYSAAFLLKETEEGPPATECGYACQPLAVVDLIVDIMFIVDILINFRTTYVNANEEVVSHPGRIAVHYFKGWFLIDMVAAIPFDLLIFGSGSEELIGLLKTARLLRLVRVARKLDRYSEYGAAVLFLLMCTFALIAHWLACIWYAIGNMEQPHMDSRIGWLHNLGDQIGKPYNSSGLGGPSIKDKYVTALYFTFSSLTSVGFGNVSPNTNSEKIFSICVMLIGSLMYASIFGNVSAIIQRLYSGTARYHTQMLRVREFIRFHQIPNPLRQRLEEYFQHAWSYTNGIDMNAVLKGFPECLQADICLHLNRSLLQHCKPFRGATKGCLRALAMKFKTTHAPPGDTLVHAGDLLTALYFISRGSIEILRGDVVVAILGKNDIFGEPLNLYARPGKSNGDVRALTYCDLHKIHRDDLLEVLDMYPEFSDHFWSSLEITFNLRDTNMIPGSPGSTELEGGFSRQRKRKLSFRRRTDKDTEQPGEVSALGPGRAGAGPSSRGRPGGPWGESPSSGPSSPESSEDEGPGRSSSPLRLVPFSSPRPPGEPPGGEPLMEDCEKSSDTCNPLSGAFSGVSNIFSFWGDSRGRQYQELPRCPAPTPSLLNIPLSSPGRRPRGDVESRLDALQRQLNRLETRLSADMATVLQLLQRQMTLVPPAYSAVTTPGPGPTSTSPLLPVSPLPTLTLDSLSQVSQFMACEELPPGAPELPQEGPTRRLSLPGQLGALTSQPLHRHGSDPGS
Sequence of GSK3β (Glycogen synthase kinase-3 beta) (P49841 whole entry): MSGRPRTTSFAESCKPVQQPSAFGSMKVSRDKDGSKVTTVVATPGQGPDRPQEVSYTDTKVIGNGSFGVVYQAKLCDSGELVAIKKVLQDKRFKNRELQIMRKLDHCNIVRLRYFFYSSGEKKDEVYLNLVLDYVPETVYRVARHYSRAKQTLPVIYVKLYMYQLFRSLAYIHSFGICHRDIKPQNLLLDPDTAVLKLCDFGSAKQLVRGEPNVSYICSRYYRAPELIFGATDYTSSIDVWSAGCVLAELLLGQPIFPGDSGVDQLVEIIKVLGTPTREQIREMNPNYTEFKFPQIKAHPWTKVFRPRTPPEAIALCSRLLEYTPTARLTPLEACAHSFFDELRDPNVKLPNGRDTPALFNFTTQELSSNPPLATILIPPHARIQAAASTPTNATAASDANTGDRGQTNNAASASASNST

Cc1cnc(N[C@H]2CC[C@H](Nc3ccc(-n4ncc5cccnc54)cn3)C2)nn1 [Example 310, (1S,3S)—N′-(5-(1H-Pyrazolo[3,4-b]pyridin-1-yl)pyridin-2-yl)-N^3-(6-methyl-1,2,4-triazin-3-yl)cyclopentane-1,3-diamine]
IC50 [1]: 22 nM | Kd [2]: 19 nM | IC50 [3]: > 10000 nM | IC50 [4]: 35000 nM

CN(C)C(=O)c1cnc(N[C@H]2CC[C@H](Nc3ccc(-n4ccccc4=O)cn3)C2)nn1 [Example 76, N,N-Dimethyl-3-(((1S,3S)-3-((2-oxo-2H-[1,3′-bipyridin]-6′-yl)amino)cyclopentyl)amino)-1,2,4-triazine-6-carboxamide]
IC50 [1]: 485 nM | Kd [2]: 125 nM | IC50 [3]: > 10000 nM | IC50 [4]: > 40000 nM

O=C(NCCO)c1cnc(N[C@H]2CC[C@H](Nc3ccc(-n4ccccc4=O)cn3)C2)nn1 [Example 72, N-(2-Hydroxyethyl)-3-(((1S,3S)-3-((2-oxo-2H-[1,3′-bipyridin]-6′-yl)amino)cyclopentyl)amino)-1,2,4-triazine-6-carboxamide]
IC50 [1]: 205 nM | Kd [2]: 170 nM | IC50 [3]: > 10000 nM | IC50 [4]: > 40000 nM

CCNC(=O)c1cnc(N[C@H]2CC[C@H](Nc3ccc(-n4ccccc4=O)cn3)C2)nn1 [Example 73, N-Ethyl-3-(((1S,3S)-3-((2-oxo-2H-[1,3′-bipyridin]-6′-yl)amino)cyclopentyl)amino)-1,2,4-triazine-6-carboxamide]
IC50 [1]: 75 nM | Kd [2]: 48 nM | IC50 [3]: > 10000 nM | IC50 [4]: > 40000 nM

O=C(NCC(F)F)c1cnc(N[C@H]2CC[C@H](Nc3ccc(-n4ccccc4=O)cn3)C2)nn1 [Example 71, N-(2,2-Difluoroethyl)-3-(((1S,3S)-3-((2-oxo-2H-[1,3′-bipyridin]-6′-yl)amino)cyclopentyl)amino)-1,2,4-triazine-6-carboxamide]
IC50 [1]: 46 nM | Kd [2]: 63 nM | IC50 [3]: > 10000 nM | IC50 [4]: > 40000 nM

NC(=O)c1cnc(N[C@H]2CC[C@H](Nc3ccc(-n4ccccc4=O)cn3)C2)nn1 [Example 74, 3-(((1S,3S)-3-((2-Oxo-2H-[1,3′-bipyridin]-6′-yl)amino)cyclopentyl)amino)-1,2,4-triazine-6-carboxamide]
IC50 [1]: 85 nM | Kd [2]: 80 nM | IC50 [3]: 8300 nM | IC50 [4]: > 40000 nM

Cc1cnnc(N[C@H]2CC[C@H](Nc3ccc(-n4ccccc4=O)cn3)C2)n1 [Example 126, 6′-(((1S,3S)-3-((5-Methyl-1,2,4-triazin-3-yl)amino)cyclopentyl)amino)-2H-[1,3′-bipyridin]-2-one]
IC50 [1]: 744 nM | Kd [2]: 954 nM | IC50 [3]: > 10000 nM | IC50 [4]: > 40000 nM

alirocumab
decrease in LDL levels [5]: about 50%

Cc1cnc(N[C@H]2CC[C@H](Nc3ccc(-n4ncc5ccccc54)cn3)C2)nn1 [Example 311, (1S,3S)—N′-(5-(1H-Indazol-1-yl)pyridin-2-yl)-N^3-(6-methyl-1,2,4-triazin-3-yl)cyclopentane-1,3-diamine]
IC50 [1]: 5.5 nM | Kd [2]: 6.9 nM | IC50 [3]: > 10000 nM | IC50 [4]: 7600 nM

Cc1nnc(N[C@H]2CC[C@H](Nc3ccc(-n4ccccc4=O)cn3)C2)nc1C [Example 127, 6′-(((1S,3S)-3-((5,6-Dimethyl-1,2,4-triazin-3-yl)amino)cyclopentyl)amino)-2H-[1,3′-bipyridin]-2-one]
IC50 [1]: 193 nM | Kd [2]: 248 nM | IC50 [3]: > 10000 nM | IC50 [4]: > 40000 nM

Cc1cccn(-c2ccc(N[C@H]3CC[C@H](Nc4ncc(C(=O)NC5COC5)nn4)C3)nc2)c1=O [Example 155, 3-(((1S,3S)-3-((3-Methyl-2-oxo-2H-[1,3′-bipyridin]-6′-yl)amino)cyclopentyl)amino)-N-(oxetan-3-yl)-1,2,4-triazine-6-carboxamide]
IC50 [1]: 2.7 nM | EC50 [6]: 100 nM | IC50 [3]: > 10000 nM | IC50 [4]: > 40100 nM

COc1ccn(-c2ccc(N[C@H]3CC[C@H](Nc4ncc(C)nn4)C3)nc2)c(=O)c1 [Example 180, 4-Methoxy-6′-(((1S,3S)-3-((6-methyl-1,2,4-triazin-3-yl)amino)cyclopentyl)amino)-2H-[1,3′-bipyridin]-2-one]
IC50 [1]: 6 nM | EC50 [6]: 300 nM | IC50 [3]: > 10000 nM | IC50 [4]: > 40100 nM

O=c1ccc(-c2c[nH]nn2)cn1-c1ccc(N[C@H]2CC[C@H](Nc3ncc(C4CC4)nn3)C2)nc1 [Example 122, 6′-(((1S,3S)-3-((6-Cyclopropyl-1,2,4-triazin-3-yl)amino)cyclopentyl)amino)-5-(1H-1,2,3-triazol-4-yl)-2H-[1,3′-bipyridin]-2-one]
IC50 [1]: 1.4 nM | EC50 [6]: 100 nM | IC50 [3]: 6170 nM | IC50 [4]: > 40100 nM
